Assay results taken from EP3494999A1, “PSMA LIGANDS FOR IMAGING AND ENDORADIOTHERAPY” (Technische Universität München, priority 2017, dated 2019).
Square brackets hold non-standard residues; d marks the D form. Peptide text beside a SMILES is read from it. * marks the point of attachment. X1 = O=C(O)CC[C@H](NC(=O)N[C@@H](CCCCNC(=O)CCCCCCC(=O)*)C(=O)O)C(=O)O; DOTAGA = O=C(O)CN1CCN(CC(=O)O)CCN(C(CCC(=O)*)C(=O)O)CCN(CC(=O)O)CC1; dPhe(4-NH2) = Nc1ccc(C[C@@H](N)C(=O)O)cc1; dTyr(3-I) = N[C@H](Cc1ccc(O)c(I)c1)C(=O)O; Phe(4-NH2) = Nc1ccc(C[C@H](N)C(=O)O)cc1; d2Nal = N[C@H](Cc1ccc2ccccc2c1)C(=O)O

Experiments:
PSMA = PSMA (Homo sapiens, UniProt Q04609); assay: Determination of IC50: competitive binding against ([125I]I-BA)KuE on cells; design: endogenous in cells; LNCaP is named only for the xenografts; details: for IC50: natLu complexes, displacement of ([125I]I-BA)KuE, 60 min on ice, HBSS (1% BSA)
PSMA, sequence (Q04609 whole entry): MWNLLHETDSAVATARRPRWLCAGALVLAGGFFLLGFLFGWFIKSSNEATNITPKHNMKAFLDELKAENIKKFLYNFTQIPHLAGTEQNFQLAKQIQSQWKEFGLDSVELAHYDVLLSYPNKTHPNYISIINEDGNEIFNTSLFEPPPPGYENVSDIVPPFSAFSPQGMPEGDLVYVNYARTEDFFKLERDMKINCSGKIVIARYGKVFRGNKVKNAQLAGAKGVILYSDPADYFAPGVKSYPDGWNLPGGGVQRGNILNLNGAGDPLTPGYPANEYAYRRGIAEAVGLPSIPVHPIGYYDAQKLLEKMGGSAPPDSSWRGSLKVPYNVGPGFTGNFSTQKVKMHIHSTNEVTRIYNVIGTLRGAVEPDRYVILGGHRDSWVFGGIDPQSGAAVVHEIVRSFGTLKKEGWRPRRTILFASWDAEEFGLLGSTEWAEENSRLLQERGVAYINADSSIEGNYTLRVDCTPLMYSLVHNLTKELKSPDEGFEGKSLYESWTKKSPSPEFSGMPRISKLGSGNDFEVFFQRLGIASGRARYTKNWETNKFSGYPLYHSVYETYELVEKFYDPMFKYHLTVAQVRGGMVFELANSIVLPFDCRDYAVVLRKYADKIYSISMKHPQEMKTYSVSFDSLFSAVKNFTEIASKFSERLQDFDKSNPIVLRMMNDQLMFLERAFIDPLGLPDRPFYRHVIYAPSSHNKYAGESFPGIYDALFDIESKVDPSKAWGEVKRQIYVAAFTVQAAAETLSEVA
Procedure: The corresponding ^natLu^III-complexes were prepared from a 2 mM aqueous solution of the PSMA inhibitor with a 2.5 molar excess of LuCl3 (20 mM solution), heated to 95 °C for 30 min. After cooling, the ^natLu^III-chelate formation was confirmed using HPLC and MS. […] Calculated monoisotopic mass (C67H92N11O23 Lu) = 1,593.6 found: m/z = 1,595.0 [M+H]^+, 798.2 [M+2H]^2+. [^natLu]DOTAGA-(4-NH2)f-y-nal-k-KuE ([^natLu]PSMA-5): HPLC (10 to 60% B in 15 min.): tR = 9.0 min K' = 3.5. Calculated monoisotopic mass (C76H102N13O24 Lu) = 1,755.7 found: m/z = 1,756.4 [M+H]^+, 879.0 [M+2H]^2+. [^natLu]DOTAGA-(4-NH2)F-y-nal-k-KuE ([^natLu]PSMA-6): HPLC (10 to 60% B in 15 min.): tR = 9.1 min K' = 3.6. Calculated monoisotopic mass (C76H102N13O24 Lu) = 1,755.7 found: m/z = 1,756.6 [M+H]^+, 878.8 [M+2H]^2+. [^natLu]DOTAGA-y-nal-k(Suc-(HO-δ-orn-γ-EuE))-OH ([^natLu]PSMA-7): HPLC (10 to 60 % B in 15 min): tR = 7.8 min K' = 2.9. Calculated monoisotopic mass (C67H89N12O26 Lu): 1,652.5 found: m/z = 1,653.9 [M+H]^+. [^natLu]DOTAGA-(4-NH2)f-y-nal-k(Suc-(HO-δ-orn-γ-EuE))-OH ([^natLu]PSMA-8): HPLC (10 to 60 % B in 15 min): tR = 7.3 min K' = 2.7. Calculated monoisotopic mass (C67H99N14O27Lu): 1,814.6 found: m/z = 1,815.9 [M+H]^+, 908.3 [M+2H]^2+. [^natLu]DOTAGA-(4-NH2)F-y-nal-k(Suc-(HO-δ-orn-γ-EuE))-OH ([^natLu]PSMA-9): HPLC (10 to 60 % B in 15 min): tR = 7.2 min K' = 2.6. Calculated monoisotopic mass (C67H99N14O27Lu): 1,814.6 found: m/z = 1,815.6 [M+H]^+, 908.3 [M+2H]^2+. [^natLu]DOTAGA-y-nal-k(Glut-(l-f)-KuE) ([^natLu]PSMA-10): HPLC (25 to 55% B in 15 min): tR = 10.6 min K' = 4.9. Calculated monoisotopic mass (C73H94IN12O24Lu): 1,825.5 found: m/z = 1,826.5 [M+H]^+, 913.8 [M+2H]^2+. [^natLu]DOTAGA-(4-NH2)f-y-nal-k(Glut-(l-f)-KuE) ([^natLu]PSMA-11): HPLC (10 to 60% B in 20 min): tR = 9.7 min K' = 3.9. Calculated monoisotopic mass (C82H104IN14O25Lu): 1,986.6 found: m/z = 1,987.5 [M+H]^+, 994.3 [M+2H]^2+.
The reaction solution was incubated for 10 min at RT, loaded on a cartridge and rinsed with 10 mL water (C18 Sep Pak Plus cartridge, preconditioned with 10 mL MeOH and 10 mL water). After elution with 2.0 mL of a 1:1 mix (v/v) of EtOH/MeCN, the radioactive solution was evaporated to dryness under a gentle nitrogen stream and treated with 200 µL TFA for 30 min with subsequent evaporation of TFA.
After removal of the culture medium, the cells were treated once with 500 µL of HBSS (Hank's balanced salt solution, Biochrom, Berlin, Germany, with addition of 1% bovine serum albumin (BSA)) and left 15 min on ice for equilibration in 200 µL HBSS (1% BSA). […] All experiments were performed at least three times for each concentration. After 60 min incubation on ice, the experiment was terminated by removal of the medium and consecutive rinsing with 200 µL of HBSS. The media of both steps were combined in one fraction and represent the amount of free radioligand. Afterwards, the cells were lysed with 250 µL of 1.0 M NaOH and united with the 200 µL HBSS of the following wash step. Quantification of bound and free radioligand was accomplished in a γ-counter.

[1] = format: physicochemical
Procedure: To a volume of 500 µL n-octanol, 0.5 to 1.0 MBq of the radiolabeled PSMA inhibitor in 500 µL PBS (pH = 7.4) was added and rigorously vortexted for 3 min (n = 6). For quantitative phase separation, the mixture was centrifuged at 6,000 g for 5 min (Biofuge 15, Heraus Sepatech, Osterode, Germany).

[2] = design: species or system SCID mice; details: mouse, in vivo
Procedure: (§1) All animal experiments were carried out in accordance with the general animal welfare regulations in Germany (Deutsches Tierschutzgesetz, approval #55.2-1-54-2532-71-13). For the tumor model, LNCaP cells (approx. 10^7 cells) were suspended 1:1 in serum-free DMEM-F12 medium and Matrigel (BD Biosciences, Germany) and inoculated onto the right shoulder of male, 6 to 8 weeks old CB-17 SCID mice (Charles River Laboratories, Sulzfeld, Germany). Animals were used after the tumor size reached 4 to 8 mm in diameter for experiments.
Imaging experiments were conducted using a Siemens Inveon small animal PET and data analyzed by the associated Inveon Research Workplace software. Mice were anaesthetised with isoflurane and the ^68Ga-radiolabeled PSMA inhibitors (0.2 nmol, 7.0 to 12 MBq) were injected via tail vein. Dynamic imaging was carried out after on-bed injection for 90 min. The static blockade image was obtained, after 1 h p.i. with 15 min acquisition time. Blockade was done by coinjection of 8mg/kg of PMPA. All images were reconstructed using an OSEM3D algorithm without […] and attenuation correction.

LNCaP xenograft = tested on: LNCaP xenograft; design: species or system SCID mice; details: mouse, in vivo
Procedure: as §1

With `Nc1ccc(C[C@H](NC(=O)CCC(C(=O)O)N2CCN(CC(=O)O)CCN(CC(=O)O)CCN(CC(=O)O)CC2)C(=O)N[C@H](Cc2ccc(O)cc2)C(=O)N[C@H](Cc2ccc3ccccc3c2)C(=O)N[C@H](CCCCNC(=O)CCCCCCC(=O)NCCCC[C@H](NC(=O)N[C@@H](CCC(=O)O)C(=O)O)C(=O)O)C(=O)O)cc1` (stereo partly drawn) [[^nat/177Lu]PSMA-6, DOTAGA-(4-NH2)F-y-nal-k-KuE, metal not drawn] ({DOTAGA}-[Phe(4-NH2)][dY][d2Nal][dK](X1)-OH) the IC50 (PSMA) was 1.1 ± 0.1 nM, the “affinity, fold higher than [Lu]PSMA DKFZ 617” value (PSMA; relative to [Lu]PSMA DKFZ 617) was “more than 3 fold” and the “affinity, fold higher than [Lu]PSMA I&T” value (PSMA; relative to [Lu]PSMA I&T) was “around 7 fold”.

`O=C(O)CC[C@H](NC(=O)N[C@@H](CCCCNC(=O)CCCCCCC(=O)NCCCC[C@@H](NC(=O)[C@@H](Cc1ccc2ccccc2c1)NC(=O)[C@@H](Cc1ccc(O)cc1)NC(=O)CCC(C(=O)O)N1CCN(CC(=O)O)CCN(CC(=O)O)CCN(CC(=O)O)CC1)C(=O)O)C(=O)O)C(=O)O` (stereo partly drawn) [[^nat/177Lu]PSMA-4, DOTAGA-y-nal-k-KuE, metal not drawn, reference compound] showed a logP [1] of -4.11 ± 0.06 and an IC50 (PSMA) of 2.1 ± 0.8 nM.

With `Nc1ccc(C[C@@H](NC(=O)CCC(C(=O)O)N2CCN(CC(=O)O)CCN(CC(=O)O)CCN(CC(=O)O)CC2)C(=O)N[C@H](Cc2ccc(O)c(I)c2)C(=O)N[C@H](Cc2ccccc2)C(=O)N[C@H](CCCCNC(=O)CCCCCCC(=O)NCCCC[C@H](NC(=O)N[C@@H](CCC(=O)O)C(=O)O)C(=O)O)C(=O)O)cc1` (stereo partly drawn) [[^nat/177Lu]PSMA-2, DOTAGA-(4-NH2)f-(l-y)-f-k-KuE, metal not drawn] ({DOTAGA}-[dPhe(4-NH2)][dTyr(3-I)][dF][dK](X1)-OH) the logP [1] was -4.11 ± 0.06, the kidney clearance [2] was “accelerated kidney clearance” and the IC50 (PSMA) was 2.3 ± 0.6 nM.

`O=C(O)CC[C@H](NC(=O)N[C@@H](CCCCNC(=O)[C@@H](Cc1ccc(I)cc1)NC(=O)CCCC(=O)NCCCC[C@@H](NC(=O)[C@@H](Cc1ccc2ccccc2c1)NC(=O)[C@@H](Cc1ccc(O)cc1)NC(=O)CCC(C(=O)O)N1CCN(CC(=O)O)CCN(CC(=O)O)CCN(CC(=O)O)CC1)C(=O)O)C(=O)O)C(=O)O` (stereo partly drawn) [[^nat/177Lu]PSMA-10, DOTAGA-y-nal-k(Glut-(l-f)-KuE), metal not drawn, reference compound] showed a logP [1] of -3.05 ± 0.02 and an IC50 (PSMA) of 6.1 ± 1.6 nM.

In the case of `Nc1ccc(C[C@H](NC(=O)CCC(C(=O)O)N2CCN(CC(=O)O)CCN(CC(=O)O)CCN(CC(=O)O)CC2)C(=O)N[C@H](Cc2ccc(O)c(I)c2)C(=O)N[C@H](Cc2ccccc2)C(=O)N[C@H](CCCCNC(=O)CCCCCCC(=O)NCCCC[C@H](NC(=O)N[C@@H](CCC(=O)O)C(=O)O)C(=O)O)C(=O)O)cc1` (stereo partly drawn) [[^nat/177Lu]PSMA-3, DOTAGA-(4-NH2)F-(l-y)-f-k-KuE, metal not drawn] ({DOTAGA}-[Phe(4-NH2)][dTyr(3-I)][dF][dK](X1)-OH), the Increased tumor uptake (LNCaP xenograft) is reported as “about 200%” and the IC50 (PSMA) is reported as 2.8 ± 0.3 nM.
